Test results: patent US11173151B2, “Substituted triazole derivatives and uses thereof” (BAYER AKTIENGESELLSCHAFT, priority 2017, dated 2021)
Where two headings read alike, the source gives them in different places.

What was measured:
human V1a receptor = target: T1, human V1a receptor (Homo sapiens, UniProt P37288); experiment: Cellular in vitro assay for determining vasopressin receptor activity, V1a receptor cell line (CHO, aequorin luminescence); type: cell-based; details: for IC50: CHO cell line transfected with human V1a receptor, [Arg]-vasopressin at EC50 concentration, read-out: IC50 hV1a; for ratio IC50 hV2/hV1a: selectivity ratio IC50 hV2 / IC50 hV1a
T1 construct: expressed in transfected cells; host or cells: CHO K1 (ATCC), also stably transfected with a modified aequorin
T1 sequence (P37288 whole entry): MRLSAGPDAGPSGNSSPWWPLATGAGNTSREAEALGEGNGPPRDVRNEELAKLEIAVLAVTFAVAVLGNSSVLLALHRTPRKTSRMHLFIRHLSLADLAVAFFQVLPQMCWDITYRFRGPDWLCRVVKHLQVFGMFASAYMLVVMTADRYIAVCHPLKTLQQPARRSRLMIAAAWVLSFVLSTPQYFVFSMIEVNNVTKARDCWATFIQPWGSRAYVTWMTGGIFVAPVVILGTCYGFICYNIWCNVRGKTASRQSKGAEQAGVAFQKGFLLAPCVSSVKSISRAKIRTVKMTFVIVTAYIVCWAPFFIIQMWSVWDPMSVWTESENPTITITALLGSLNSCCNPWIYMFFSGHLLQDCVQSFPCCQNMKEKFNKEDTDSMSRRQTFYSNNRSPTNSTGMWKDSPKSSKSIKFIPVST
In short: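 Cells were plated the day before in medium containing 5 μg/ml coelenterazine and kept at 37° C. Compounds at various concentrations were then added for 10 minutes. Next, [Arg]-vasopressin at EC50 was applied and light output recorded at once, yielding IC50.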

human V2 receptor = target: T2, human V2 receptor (Homo sapiens, UniProt P30518); experiment: Cellular in vitro assay for determining vasopressin receptor activity, V2 receptor cell line (CHO, CRE-luciferase); type: cell-based; details: CHO cell line transfected with human V2 receptor, [Arg8]-vasopressin at EC50 concentration, read-out: IC50 hV2
T2 construct: expressed in transfected cells; host or cells: CHO K1 (ATCC) expressing firefly luciferase under a CRE-responsive promoter
T2 sequence (P30518 whole entry): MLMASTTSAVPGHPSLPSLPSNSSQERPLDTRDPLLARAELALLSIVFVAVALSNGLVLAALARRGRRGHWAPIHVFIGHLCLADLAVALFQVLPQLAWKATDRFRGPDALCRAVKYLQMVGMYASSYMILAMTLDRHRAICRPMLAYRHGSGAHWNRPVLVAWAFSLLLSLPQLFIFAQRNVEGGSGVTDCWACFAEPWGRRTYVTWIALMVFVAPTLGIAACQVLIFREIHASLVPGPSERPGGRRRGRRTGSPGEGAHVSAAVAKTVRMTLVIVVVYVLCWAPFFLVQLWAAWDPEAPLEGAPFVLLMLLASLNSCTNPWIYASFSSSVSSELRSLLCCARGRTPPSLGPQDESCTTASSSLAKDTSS

Row | Structure (SMILES) | IC50 (human V1a receptor) [nM] | ratio IC50 hV2/hV1a (human V1a receptor) | IC50 (human V2 receptor; 3 hours) [nM] | IC50 (human V2 receptor) [nM]
1 | O=c1n(Cc2ncn(-c3cnccc3N3CCS(=O)(=O)CC3)n2)nc(-c2ccc(Cl)cc2)n1C[C@H](O)C(F)(F)F [Example 6, 5-(4-Chlorophenyl)-2-({1-[4-(1,1-dioxidothiomorpholin-4-yl)pyridin-3-yl]-1H-1,2,4-triazol-3-yl}methyl)-4-[(2S)-3,3,3-trifluoro-2-hydroxypropyl]-2,4-dihydro-3H-1,2,4-triazol-3-one] | 71.5 | 35.0 | 2500 | 
2 | O=C1CN(C(=O)c2nc(Cn3nc(-c4ccc(Cl)cc4)n(C[C@H](O)C(F)(F)F)c3=O)nn2-c2ncccc2C(=O)NC2CC2)CCN1 [Example 513, 2-{3-({3-(4-Chlorophenyl)-5-oxo-4-[(2S)-3,3,3-trifluoro-2-hydroxypropyl]-4,5-dihydro-1H-1,2,4-triazol-1-yl}methyl)-5-[(3-oxopiperazin-1-yl)carbonyl]-1H-1,2,4-triazol-1-yl}-N-cyclopropylpyridine-3-carboxamide] | 2400 | 2.3 |  | 5450
3 | Cc1cc(C(=O)Nc2ncccc2-n2cnc(Cn3nc(-c4ccc(Cl)cc4)n(C[C@H](O)C(F)(F)F)c3=O)n2)nn1C [Example 129] | 670 | 5.4 | 3650 | 
4 | O=C(Nc1nncs1)c1ccccc1-n1cnc(Cn2nc(-c3ccc(Cl)cc3)n(C[C@H](O)C(F)(F)F)c2=O)n1 [Example 251, 2-[3-({3-(4-Chlorophenyl)-5-oxo-4-[(2S)-3,3,3-trifluoro-2-hydroxypropyl]-4,5-dihydro-1H-1,2,4-triazol-1-yl}methyl)-1H-1,2,4-triazol-1-yl]-N-(1,3,4-thiadiazol-2-yl)benzamide] | 8.85 | 9.2 | 81.5 | 
5 | CN1CCC(C(=O)Nc2ncccc2-n2cnc(Cn3nc(-c4ccc(Cl)cc4)n(C[C@H](O)C(F)(F)F)c3=O)n2)CC1 [Example 109] | 115 | 58.7 | 6750 | 
6 | CC(C)(C)OC(=O)CNc1ccncc1-n1cnc(Cn2nc(-c3ccc(Cl)cc3)n(C[C@H](O)C(F)(F)F)c2=O)n1 [Example 16, Tert-butyl N-{3-[3-({3-(4-chlorophenyl)-5-oxo-4-[(2S)-3,3,3-trifluoro-2-hydroxypropyl]-4,5-dihydro-1H-1,2,4-triazol-1-yl}methyl)-1H-1,2,4-triazol-1-yl]pyridin-4-yl}glycinate] | 79.5 | 19.5 | 1550 | 
7 | O=C1CCC(NC(=O)c2ccccc2-n2cnc(Cn3nc(-c4ccc(Cl)cc4)n(C[C@H](O)C(F)(F)F)c3=O)n2)CN1 (mixture of isomers) [Example 191] | 19.5 | 192.3 | 3750 | 
8 | CC(C)(O)CNc1ccncc1-n1cnc(Cn2nc(-c3ccc(Cl)cc3)n(C[C@H](O)C(F)(F)F)c2=O)n1 [Example 2, 5-(4-Chlorophenyl)-2-[(1-{4-[(2-hydroxy-2-methylpropyl)amino]pyridin-3-yl}-1H-1,2,4-triazol-3-yl)methyl]-4-[(2S)-3,3,3-trifluoro-2-hydroxypropyl]-2,4-dihydro-3H-1,2,4-triazol-3-one] | 585 | 0.4 | 210 | 
9 | O=C(CC(F)(F)F)Nc1cccnc1-n1cnc(Cn2nc(-c3ccc(Cl)cc3)n(C[C@H](O)C(F)(F)F)c2=O)n1 [Example 37, N-{2-[3-({3-(4-Chlorophenyl)-5-oxo-4-[(2S)-3,3,3-trifluoro-2-hydroxypropyl]-4,5-dihydro-1H-1,2,4-triazol-1-yl}methyl)-1H-1,2,4-triazol-1-yl]pyridin-3-yl}-3,3,3-trifluoropropanamide] | 7.5 | 77.0 | 578 | 

These reach a lower IC50 (human V1a receptor). Values come first.

Row | IC50 (human V1a receptor) [nM] | ratio IC50 hV2/hV1a (human V1a receptor) | IC50 (human V2 receptor; 3 hours) [nM] | IC50 (human V2 receptor) [nM] | Structure (SMILES)
10 | 1.9 | 231.6 | 440 |  | O=C(c1ccccc1-n1cnc(Cn2nc(-c3ccc(Cl)cc3)n(C[C@H](O)C(F)(F)F)c2=O)n1)N1CCCO1 [Example 285, 5-(4-Chlorophenyl)-2-({1-[2-(1,2-oxazolidin-2-ylcarbonyl)phenyl]-1H-1,2,4-triazol-3-yl}methyl)-4-[(2S)-3,3,3-trifluoro-2-hydroxypropyl]-2,4-dihydro-3H-1,2,4-triazol-3-one]
11 | 5 | 153.0 | 765 |  | O=C(Nc1cccnc1-n1cnc(Cn2nc(-c3ccc(Cl)cc3)n(C[C@H](O)C(F)(F)F)c2=O)n1)C1CCS(=O)(=O)C1 (single isomer, unassigned) [Example 51]
12 | 2.5 | 22.0 | 55 |  | Cc1csc(NC(=O)c2ccccc2-n2cnc(Cn3nc(-c4ccc(Cl)cc4)n(C[C@H](O)C(F)(F)F)c3=O)n2)n1 [Example 259, 2-[3-({3-(4-Chlorophenyl)-5-oxo-4-[(2S)-3,3,3-trifluoro-2-hydroxypropyl]-4,5-dihydro-1H-1,2,4-triazol-1-yl}methyl)-1H-1,2,4-triazol-1-yl]-N-(4-methyl-1,3-thiazol-2-yl)benzamide]
13 | 4.4 | 112.5 | 495 |  | CC1(C)CCCN(C(=O)c2ccccc2-n2cnc(Cn3nc(-c4ccc(Cl)cc4)n(C[C@H](O)C(F)(F)F)c3=O)n2)C1 [Example 327, 5-(4-Chlorophenyl)-2-[(1-{2-[(3,3-dimethylpiperidin-1-yl)carbonyl]phenyl}-1H-1,2,4-triazol-3-yl)methyl]-4-[(2S)-3,3,3-trifluoro-2-hydroxypropyl]-2,4-dihydro-3H-1,2,4-triazol-3-one]
14 | 1.02 | 656.9 | 670 |  | O=C(Nc1ccncc1)c1ccccc1-n1cnc(Cn2nc(-c3ccc(Cl)cc3)n(C[C@H](O)C(F)(F)F)c2=O)n1 [Example 300, 2-[3-({3-(4-Chlorophenyl)-5-oxo-4-[(2S)-3,3,3-trifluoro-2-hydroxypropyl]-4,5-dihydro-1H-1,2,4-triazol-1-yl}methyl)-1H-1,2,4-triazol-1-yl]-N-(pyridin-4-yl)benzamide]
15 | 4.85 | 38.1 | 185 |  | CC1CCC(C)C1NC(=O)c1ccccc1-n1cnc(Cn2nc(-c3ccc(Cl)cc3)n(C[C@H](O)C(F)(F)F)c2=O)n1 (stereo partly drawn) [Example 222, 2-[3-({3-(4-Chlorophenyl)-5-oxo-4-[(2S)-3,3,3-trifluoro-2-hydroxypropyl]-4,5-dihydro-1H-1,2,4-triazol-1-yl}methyl)-1H-1,2,4-triazol-1-yl]-N-(2,5-dimethylcyclopentyl)benzamide]
16 | 5.65 | 125.7 | 710 |  | Cc1cccc(C(=O)Nc2ncccc2-n2cnc(Cn3nc(-c4ccc(Cl)cc4)n(C[C@H](O)C(F)(F)F)c3=O)n2)n1 [Example 107]
17 | 1.55 | 132.3 | 205 |  | CC(C)CNC(=O)c1ccccc1-n1cnc(Cn2nc(-c3ccc(Cl)cc3)n(C[C@H](O)C(F)(F)F)c2=O)n1 [Example 341, 2-[3-({3-(4-Chlorophenyl)-5-oxo-4-[(2S)-3,3,3-trifluoro-2-hydroxypropyl]-4,5-dihydro-1H-1,2,4-triazol-1-yl}methyl)-1H-1,2,4-triazol-1-yl]-N-(2-methylpropyl)benzamide]
18 | 2.5 | 422.0 | 1050 |  | COC1CCCN(C(=O)c2ccccc2-n2cnc(Cn3nc(-c4ccc(Cl)cc4)n(C[C@H](O)C(F)(F)F)c3=O)n2)C1 (mixture of isomers) [Example 269, 5-(4-Chlorophenyl)-2-{[1-(2-{[3-methoxypiperidin-1-yl]carbonyl}phenyl)-1H-1,2,4-triazol-3-yl]methyl}-4-[(2S)-3,3,3-trifluoro-2-hydroxypropyl]-2,4-dihydro-3H-1,2,4-triazol-3-one]
19 | 1.75 | 67.7 | 119 |  | CC[C@H](C)NC(=O)c1ccccc1-n1cnc(Cn2nc(-c3ccc(Cl)cc3)n(C[C@H](O)C(F)(F)F)c2=O)n1 [Example 346, N-[(2S)-Butan-2-yl]-2-[3-({3-(4-chlorophenyl)-5-oxo-4-[(2S)-3,3,3-trifluoro-2-hydroxypropyl]-4,5-dihydro-1H-1,2,4-triazol-1-yl}methyl)-1H-1,2,4-triazol-1-yl]benzamide]
20 | 6.45 | 125.6 | 810 |  | CC(C)=CCNC(=O)c1ccccc1-n1cnc(Cn2nc(-c3ccc(Cl)cc3)n(C[C@H](O)C(F)(F)F)c2=O)n1 [Example 245, 2-[3-({3-(4-Chlorophenyl)-5-oxo-4-[(2S)-3,3,3-trifluoro-2-hydroxypropyl]-4,5-dihydro-1H-1,2,4-triazol-1-yl}methyl)-1H-1,2,4-triazol-1-yl]-N-(3-methylbut-2-en-1-yl)benzamide]
21 | 2.8 | 167.9 | 470 |  | O=C(NC1CC1)c1cccc(Cl)c1-n1cnc(Cn2nc(-c3ccc(Cl)cc3)n(C[C@H](O)C(F)(F)F)c2=O)n1 [Example 369, 3-Chloro-2-[3-({3-(4-chlorophenyl)-5-oxo-4-[(2S)-3,3,3-trifluoro-2-hydroxypropyl]-4,5-dihydro-1H-1,2,4-triazol-1-yl}methyl)-1H-1,2,4-triazol-1-yl]-N-cyclopropylbenzamide]
22 | 2.15 | 237.2 | 510 |  | CCN(CC)C(=O)c1ccccc1-n1cnc(Cn2nc(-c3ccc(Cl)cc3)n(C[C@H](O)C(F)(F)F)c2=O)n1 [Example 314, 2-[3-({3-(4-Chlorophenyl)-5-oxo-4-[(2S)-3,3,3-trifluoro-2-hydroxypropyl]-4,5-dihydro-1H-1,2,4-triazol-1-yl}methyl)-1H-1,2,4-triazol-1-yl]-N,N-diethylbenzamide]
